Laboratory results published in US20100267778A1, “Diphenyl ether compound, process for producing the same, and use” (priority 2003, published 2010).

Columns and labels:
human PPAR δ = molecular target: T1, human PPAR δ (Homo sapiens, UniProt Q03181); experiment: Luciferase assay using human PPAR δ (Gal4-PPAR δ ligand binding domain chimera, CV-1 cells); type: cell-based; conditions: relative value, carbacyclin at 30 μM defined as 1
T1 construct: expressed in transfected cells; host or cells: CV-1 cells
T1 sequence (Q03181 139-441): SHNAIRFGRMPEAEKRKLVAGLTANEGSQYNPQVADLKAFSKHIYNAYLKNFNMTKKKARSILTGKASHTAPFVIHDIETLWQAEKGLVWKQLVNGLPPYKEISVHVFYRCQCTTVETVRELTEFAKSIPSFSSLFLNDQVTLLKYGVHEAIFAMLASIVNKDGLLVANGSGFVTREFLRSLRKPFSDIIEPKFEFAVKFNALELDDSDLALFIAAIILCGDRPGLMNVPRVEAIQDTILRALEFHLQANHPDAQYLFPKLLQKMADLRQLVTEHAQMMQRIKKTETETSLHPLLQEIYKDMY

[1] = test system: Male mice (C57BL/6NCrj) loaded with a high-cholesterol feed; experiment: Lowering action for cholesterol in blood and lipid in blood, mice loaded with high-cholesterol feed; type: in vivo; conditions: relative value, medium group = 100%
Procedure: Lowering action for cholesterol in blood and lipid in blood:
Male mice of seven weeks age (C57BL/6NCrj) was loaded with a high-cholesterol feed (CRF-1 Solid Feed in which 5.5% of peanut oil, 1.5% of cholesterol and 0.5% of cholic acid were mixed; Oriental Bio Service) for six days, then body weight of the […] was measured under fasting and the following various parameter concentrations were measured. Measured items were LDL, HDL, TG value, NEFA and TC value. […] From the next day, a compound suspended in a medium (a 0.5% methyl cellulose solution) was compulsorily administered per os once daily for continuous six days and, at the same time, loading with the high cholesterol feed was continued as well. On the next day of the final administration (i.e., on the seventh day from the start of the administration), lipid levels in blood (TG, HDL, LDL, NEFA and TC values) were measured.
When the data were expressed as relative values where the value for the group to which a medium was administered was defined as 100%, a raising action for HDL and a lowering action for LDL of the compound produced in Example 9 (47) were as shown in Table 2.

[2] = dose 3 mg/kg per os once daily for six days
[3] = dose 10 mg/kg per os once daily for six days
[4] = dose 30 mg/kg per os once daily for six days

## Cc1cc(Oc2ccc(C)cc2OCC#Cc2ccc(C(F)(F)F)cc2)cc(C(=O)O)c1 [Example 9 (47), 3-methyl-5-[4-methyl-2-({3-[4-(trifluoromethyl)phenyl]-2-propynyl}oxy)phenoxy]benzoic acid]
Human PPAR δ; final concentration 0.1 μM
  Transcription activation degree: 0.73 Fold Increase
Human PPAR δ; final concentration 0.3 μM
  Transcription activation degree: 1.09 Fold Increase
Human PPAR δ; final concentration 1.0 μM
  Transcription activation degree: 1.02 Fold Increase
[1]; [2]
  HDL-raising action: 112.0%
  LDL-lowering action: 89.7%
[1]; [3]
  HDL-raising action: 110.2%
  LDL-lowering action: 85.3%
[1]; [4]
  HDL-raising action: 130.7%
  LDL-lowering action: 84.4%
